Patent US8507756B2, “Plant protection” (Plant Bioscience Limited, priority 2007, dated 2013)

Test system: Myzus persicae
Experiment: JA or MeJA seed treatment, tomato plants challenged with aphids
Assay type: in vivo
Settings: tomato cv. Carousel; seed treatment 3.0 mM MeJA; challenged 10 weeks after seed treatment; 12 days feeding
Method: Tomato, pepper, maize and wheat seeds were treated with 3 mM JA or 1.5 mM JA solutions or with 3 mM methyl jasmonate (MeJA) or with deionised water containing 42.8 mM ethanol (control) by full submersion of up to 40 seeds in a Petri dish of solution wrapped in foil for a period of 24 hours at 4° C. in a fridge. A temperature of 4° C. was used both to prevent degradation of the jasmonic acid solutions and to prevent germination of the seeds. The seeds were then removed from the treatment solution and washed in 1 liter of deionised water for 5 minutes to remove the JA or MeJA coating the outside of the seeds. Tomato seeds were sown in rockwool blocks and grown on peat-based compost in glass houses at 12° C.-28° C. under artificial light on a 16 hour light and 8 hour dark cycle for 48, 56 or 70 days. Tomato plants were then challenged with Tetranychus urticae (two-spotted spider mite) which were allowed to feed for 9 days, Manduca sexta (tobacco hornworm) caterpillars which were allowed to feed for 4 days or Myzus persicae (aphid), which were allowed to feed for 10 or 12 days. In each case these organisms were restricted to the plant on which they had originally been placed. Pepper plants were challenged with Myzus persicae (aphid), which were allowed to feed for 2 weeks. Maize and wheat plants were challenged with Spodoptera […] caterpillars which were allowed to feed for 2 days (maize) or 3 days (wheat). The effect of Myzus persicae on plants was determined by counting the aphid population on each plant under a dissecting microscope at ×10 magnification. Seeds of a UK commercial F1 hybrid tomato variety (cv. Carousel) were treated with 3.0 mM jasmonic acid (JA) and 42.8 mM ethanol in deionised H2O for a period of 24 hours at 4° C. in the dark. […] Aphids were allowed to feed on the plants for twelve days and the aphid population was measured at intervals over this period. […]

CC/C=C\CC1C(=O)CCC1CC(=O)OC (stereo not shown) [MeJA, jasmonic acid methyl ester]
Aphid population compared with control plants: significant (p<0.05) reduction
